According to article PMC10247784, “Physiological activation of human and mouse bitter taste receptors by bile acids” (Communications Biology, 2023):
Several values for one entry are separate records, joined by “and”; a condition that tells them apart may be missing. Equal values may be shown once.

Target: T1, human TAS2R1 (Homo sapiens, UniProt Q9NYW7)
T1 construct: expressed in transfected cells; host or cells: HEK293T-Gα16gust44
T1 sequence (Q9NYW7 1-299): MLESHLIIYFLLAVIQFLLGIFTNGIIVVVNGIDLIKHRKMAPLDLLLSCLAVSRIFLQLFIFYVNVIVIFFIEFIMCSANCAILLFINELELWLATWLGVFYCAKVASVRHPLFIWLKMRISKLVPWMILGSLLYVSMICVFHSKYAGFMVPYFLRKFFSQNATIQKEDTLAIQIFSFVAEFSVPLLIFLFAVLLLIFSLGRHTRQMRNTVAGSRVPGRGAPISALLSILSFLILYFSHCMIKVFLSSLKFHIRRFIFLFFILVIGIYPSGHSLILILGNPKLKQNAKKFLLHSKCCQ
Test: Calcium imaging assay (FLIPR), HEK293T-Gα16gust44 cells transfected with human TAS2R1
Assay type: cell-based
Outline: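 HEK293T-Gα16gust44 cells transiently transfected with the bitter-taste receptor, loaded next day with Fluo-4-AM plus 2.5 mM probenecid, and challenged with bile acids on FLIPR Tetra. Signals mock-subtracted, expressed as ΔF/F vs buffer.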

SMILES: C[C@H](CCC(=O)NCCS(=O)(=O)O)[C@H]1CC[C@H]2[C@@H]3[C@H](O)C[C@@H]4C[C@H](O)CC[C@]4(C)[C@H]3C[C@H](O)[C@]12C [Taurocholic Acid, taurocholic acid]
- Efficacy = maximal amplitude (ΔF/F) (TAS2R1, bile acids, mean): 0.09987
- Efficacy (maximal amplitude ΔF/F), individual data points (TAS2R1, bile acids, single replicates, listed as TCA): 0.08896 and 0.09306 and 0.1176
- RLU (Time 0 s (second time grid)): 0 RLU
- RLU (Time 2 s): 7.952 RLU
- RLU (Time 4 s): 20.145 RLU
- RLU (Time 6 s): -3.167 RLU
- RLU (Time 8 s): -1.092 RLU
- RLU (Time 12 s): 4.801 RLU
- RLU (Time 14 s): 10.0652 RLU
- RLU (Time 16 s): -4.025 RLU
- RLU (Time 18 s): 30.6672 RLU
- RLU (Time 18.781 s): -8.288 RLU
- RLU (Time 20.781 s): 38.1129 RLU
- RLU (Time 22.781 s): 36.5466 RLU
- RLU (Time 24.781 s): 100.781 RLU
- RLU (Time 26.781 s): 94.321 RLU
- RLU (Time 28.781 s): 128.096 RLU
- RLU (Time 30.781 s): 168.752 RLU
- RLU (Time 32.781 s): 222.063 RLU
- RLU (Time 34.781 s): 248.838 RLU
- RLU (Time 36.781 s): 287.098 RLU
- RLU (Time 38.781 s): 303.962 RLU
- RLU (Time 40.781 s): 295.88 RLU
- RLU (Time 42.781 s): 354.401 RLU
- RLU (Time 44.781 s): 378.941 RLU
- RLU (Time 46.781 s): 349.497 RLU
- RLU (Time 48.781 s): 364.135 RLU
- RLU (Time 50.781 s): 379.282 RLU
- RLU (Time 52.781 s): 390.659 RLU
- RLU (Time 54.781 s): 392.471 RLU
- RLU (Time 56.781 s): 396.221 RLU
- RLU (Time 58.781 s): 410.391 RLU
- RLU (Time 60.781 s): 390.107 RLU
- RLU (Time 62.781 s): 396.638 RLU
- RLU (Time 64.781 s): 407.599 RLU
- RLU (Time 66.781 s): 435.147 RLU
- RLU (Time 68.781 s): 406.802 RLU
- RLU (Time 70.781 s): 400.242 RLU
- RLU (Time 72.781 s): 418.773 RLU
- RLU (Time 74.781 s): 413.176 RLU
- RLU (Time 76.781 s): 422.764 RLU
- RLU (Time 78.781 s): 402.418 RLU
- RLU (Time 80.781 s): 440.793 RLU
- RLU (Time 82.781 s): 428.932 RLU
- RLU (Time 84.781 s): 402.626 RLU
- RLU (Time 86.781 s): 438.62 RLU
- RLU (Time 88.781 s): 435.97 RLU
- RLU (Time 90.781 s): 417.798 RLU
- RLU (Time 92.781 s): 396.047 RLU
- RLU (Time 94.781 s): 416.808 RLU
- RLU (Time 96.781 s): 401 RLU
- RLU (Time 98.781 s): 382.662 RLU
- RLU (Time 100.781 s): 386.609 RLU
- RLU (Time 102.781 s): 391.574 RLU
- RLU (Time 104.781 s): 343.693 RLU
- RLU (Time 106.781 s): 334.229 RLU
- RLU (Time 108.781 s): 318.822 RLU
- RLU (Time 110.781 s): 359.901 RLU
- RLU (Time 112.781 s): 338.629 RLU
- RLU (Time 114.781 s): 327.9 RLU
- RLU (Time 116.781 s): 308.179 RLU
- RLU (Time 118.781 s): 311.101 RLU
- RLU (Time 120.781 s): 314.431 RLU
- RLU (Time 122.781 s): 288.825 RLU
- RLU (Time 124.781 s): 292.111 RLU
- RLU (Time 126.781 s): 280.428 RLU
- RLU (Time 128.781 s): 264.252 RLU
- RLU (Time 130.781 s): 247.5 RLU
- RLU (Time 132.781 s): 279.196 RLU
- RLU (Time 134.781 s): 263.266 RLU
- RLU (Time 136.781 s): 260.122 RLU
- RLU (Time 137.547 s): 257.068 RLU
- RLU (Time 143.547 s): 228.429 RLU
- RLU (Time 149.547 s): 221.043 RLU
- RLU (Time 155.547 s): 204.711 RLU
- RLU (Time 161.547 s): 175.173 RLU
- RLU (Time 167.547 s): 178.916 RLU
- RLU (Time 173.547 s): 141.583 RLU
- RLU (Time 179.547 s): 150.852 RLU
- RLU (Time 185.547 s): 123.705 RLU
- RLU (Time 191.547 s): 70.5412 RLU
- RLU (Time 197.547 s): 46.3148 RLU
- RLU (Time 203.547 s): 75.6277 RLU
- RLU (Time 209.547 s): 55.0459 RLU
- RLU (Time 215.547 s): 35.7219 RLU
- RLU (Time 221.547 s): 50.9362 RLU
- RLU (Time 227.547 s): 33.794 RLU
- RLU (Time 233.547 s): 65.6166 RLU
- RLU (Time 239.547 s): 27.332 RLU
- RLU (Time 245.547 s): 17.8718 RLU
- RLU (Time 293.547 s): -10.6071 RLU
- RLU (Time 299.547 s): -16.6248 RLU
- RLU (calcium trace, sheet TAS2R1, Time 305.547 s): -3.144 RLU
- RLU (calcium trace, sheet TAS2R1, Time 311.547 s): 2.9951 RLU
- RLU (calcium trace, sheet TAS2R1, Time 317.547 s): -15.9144 RLU
- RLU (calcium trace, sheet TAS2R1, Time 323.547 s): -10.1142 RLU
- RLU (calcium trace, sheet TAS2R1, Time 329.547 s): 11.6208 RLU
- RLU (calcium trace, sheet TAS2R1, Time 335.547 s): 11.3706 RLU
- RLU (calcium trace, sheet TAS2R1, Time 341.547 s): 7.052 RLU
- RLU (calcium trace, sheet TAS2R1, Time 347.547 s): 31.851 RLU
- RLU (calcium trace, sheet TAS2R1, Time 353.547 s): 3.282 RLU
- RLU (calcium trace, sheet TAS2R1, Time 359.547 s): 34.6741 RLU
- Δ F/F (conc. 0,01 mM, TAS2R1): 0.007126
- Δ F/F (conc. 0,1 mM, TAS2R1): 0.04642
- Δ F/F (conc. 0,03 mM, TAS2R1): 0.01897
- Δ F/F (conc. 0,3 mM, TAS2R1): 0.09987
- Δ F/F (conc. 0,001 mM, TAS2R1): 0.004203
- Δ F/F (conc. 0,003 mM, TAS2R1): 0.00592
- Activation threshold concentration TAS2R1 (lowest concentration with significantly increased fluorescence vs empty vector (p < 0.01)): 100 µM and 100.00 µM
